Measured values as given in US20030088888A1, “Method of plant transformation” (priority 2001, published 2003).

System: gypsophila stem explants
Test: Transient transformation (GUS expression) of stem explants from GA3-pretreated plants after cocultivation with Agrobacterium tumefaciens EHA105/pKIWI105
Assay type: in vivo, Gypsophila paniculata L.
Method: Unrooted cuttings of gypsophila (Gypsophila paniculata L.) cultivars Arbel, Pestival, Flamingo, Yokinko, New Hope and P2000 were obtained from Danziger “DAN” Flower Farm (Moshav Mishmar Hashiva, Israel). Stem cuttings with six or eight filly mature leaves (not counting the apical leaves which were not fully expanded), harvested from greenhouse-grown plants and stored for up to 2 weeks at 4° C., were used to prepare stem explants (Zuker A, Ahroni A, Shejtman H and Vainstein A (1997). Adventitious shoot regeneration from leaf explants of Gypsophila paniculata L. Plant Cell Reports, 16: 775-778; Ahroni A, Zuker A, Rozen Y, Shejtman H and Vainstein A (1997). An efficient method for adventitious shoot regeneration from stem-segment explants of gwpsophila. Plant Cell Tiss Org Cult 49: 101-106). Twenty days prior to harvesting of cuttings (unless otherwise i5 indicated), mother plants were sprayed once with approximately 4 ml. of 1 mM GA3.
Cuttings were rinsed with 70% ethanol, then sterilized for 10 min in 1.5% (w/v) sodium hypochlorite and rinsed three times for 10 min each in sterile water. The leaves and shoot apices of the cutting were discarded and the three primary nodes were immersed for 10 min in a bacterial (A. tumefaciens EHA105/pKIWI105) suspension (OD550=1). Inoculated stem explants were then blotted dry and cultured in an upright position on the cocultivation medium for a period of up to 5 days. Following cocultivation, stem explants were histochemically evaluated for transient GUS expression by counting the number of GUS-expressing stem explants, as well as the number of blue spots per explant under a stereo-microscope.
A histochemical assay of GUS activity was performed according to Stomp (1992). Tissue samples were incubated for a few hours to overnight at 37° C. in a 0.1% (w/v) X-Gluc (5-bromo-4-chloro-3-indolyl β-D-glucuronic acid sodium salt, Biosynth Inc., Staad, Switzerland) solution containing 0.1 M sodium phosphate buffer (pH 7.0), 10 mM EDTA, and 0.1% (w/v) Triton X-100. When necessary, green tissues were bleached, after staining, by immersion in 50% (v/v) EtOH for a few hours, followed by several washes with 70% EtOH. It should be noted that no background GUS activity was detectable in any of the analyzed tissues of control plants.

SMILES: C=C1C[C@]23C[C@@]1(O)CC[C@H]2[C@@]12C=C[C@H](O)[C@@](C)(C(=O)O1)[C@H]2[C@@H]3C(=O)O [GA3]
- increase in frequency of transient transformation events (number of blue spots per explant) (cv. Arbel, explants from 20 day versus 10 day GA3 treated plants): ca. 3 times
- percentage of GUS-expressing stem explants out of total number of explants inoculated (cv. Arbel, explants from plants 20 days after GA3 treatment (1 mM spray), 5-day cocultivation with EHA105/pKIWI105): 90%
- percentage of inoculated explants expressing GUS (cvs. Pestival and Flamingo, GA3-treated plants, cocultivation with EHA105/pKIWI105, dark then light, 5 days): ca. 75%
- transient transformation (qualitative) (explants from cuttings of plants treated with GA3, versus no transient transformation without GA3): efficient and highly reproducible transient transformation was obtained
